The results in this text go back to EP4763838A1, “COMPOUND AND USE THEREOF” (Ocean University of China, priority 2023, dated 2025).

For orientation: pIC50 means the negative decadic logarithm of the IC50, by convention in mol/L.

One assay addresses T1, E3 ubiquitin ligase CRBN (Homo sapiens, UniProt Q96SW2).
T1 construct: purchased PE (PerkinElmer) 64BDCRBNPEG
The assay is described as follows: Binding activity to E3 ubiquitin ligase CRBN (HTRF competitive binding with XL665-labeled thalidomide, Cereblon binding kit). The note with it: competition with XL665-labeled thalidomide for GST-labelled CRBN protein, 3 h at room temperature. As for the experimental part: The binding activity of the compound disclosed in the present patent to the E3 ubiquitin ligase CRBN was determined by competitive binding of the disclosed compound with XL665-labeled thalidomide to the CRBN protein, thereby preventing the occurrence of fluorescence resonance energy transfer (FRET). Accordingly, the binding affinity of the compound to the CRBN protein was determined.
CRBN binding activity test kit (CEREBLON BINDING KITS (PE, 64BDCRBNPEG)).
The assay was based on a homogeneous time-resolved fluorescence (HTRF) technology. When a donor and an acceptor were in close proximity, the donor transferred energy to the acceptor so that the acceptor was excited to emit an emission light 665 nm.
The donor used in the kit of the present disclosure was a europium-labeled GST antibody (GST Eu Cryptate Antibody), and the acceptor was thalidomide labeled with XL665 (Thalidomide-Red reagent). The donor bound to the CRBN protein comprising a GST label. The compound disclosed in the present patent competitively bound to the CRBN protein with thalidomide. The binding activity of the compound was determined according to the fluorescence value emitted by the acceptor at 665 nm. The stronger binding force of the compound indicated the weaker signal.
The donor and the acceptor were diluted 50-fold respectively by using a kit buffer (PROTAC binding buffer 1). The CRBN protein was diluted 45-fold. The 8 mM solution of the compound disclosed in the present patent was diluted 10-fold with 1X diluent from the kit, followed by 5-fold serial dilutions for a total of 7 consecutive dilutions.
5 µl of compound, 5 µl of diluted CRBN protein and 10 µl of donor-acceptor isovolumetric mixture were sequentially added to each well of a white 384-well plate (PE, Part number:6008280). The above system was incubated for 3 h at room temperature.
A ratio of acceptor to donor emission signals for each individual well was calculated. Ratio = signal value at 665 nm/signal value at 620 nm * 10^4 Coefficient of variation (CV) = standard deviation (SD)/average Ratio × 100 [formula]
The IC50 value was calculated based on the compound concentration, Ratio and the coefficient of variation by using GraphPad Prism. Table 10 Binding activity of compounds 1-18 to E3 ubiquitin ligase CRBN

In a further assay the target is T2, BRD protein (Homo sapiens, UniProt O60885).
T2 construct: endogenous in cells; host or cells: MV-4-11
The assay can be described thus: Reduction of bromodomain protein (BRD) expression levels in MV-4-11 cells (Western blot, DC50 and Dmax). Particulars: BRD4 Western blot, GAPDH internal reference; for DC50: 24 hours of treatment, 0.1, 1, 10 and 20 µM; for Dmax: MV4-11, 24 hours of treatment, 0.1, 1, 10 and 20 µM. Format: cell-based. The procedure: The human […] MV-4-11 cells selected in this experiment were cultured in Iscove's Modified Dulbecco's Medium (IMDM) culture medium containing 10% fetal bovine serum (Gibco, USA) in an incubator under the conditions of at 37°C, 5% CO2 and 95% humidity. When the growth density reached 80%, a culture medium containing the compound was selected, and the cells were inoculated into a 6-well plate with a cell density of 1×10^6/ml, so that the final concentrations of the compound were 0.1, 1, 10 and 20 µM. After 24 hours of treatment, the cells were collected, washed twice with PBS and lysed with an RIPA lysis buffer containing a protease inhibitor and a phosphatase inhibitor. The lysed mixed solution was centrifuged to obtain a total protein extract. The concentration of the protein in the extract was detected by using a BCA method.
Protein electrophoresis was performed via SDS-PAGE, followed by constant-current electrotransfer at 200 mA for 150 min to transfer proteins onto a polyvinylidene fluoride (PVDF) membrane. The PVDF membrane was placed in 5% skim milk and blocked for 1 h at room temperature. BRD4 (#13440, CST) (1:1000) and C-MYC (ab32072, 1:1000) were added for incubation overnight at 4°C. The membrane was washed with Tris buffered saline Tween (TBST) for 3 times, with 10 min each time. The mixture of the membrane and a secondary antibody were incubated for 60 min at room temperature. The membrane was washed with TBST for 3 times, with 10 min each time. The ECL light-emitting liquid was dropwise added for exposure. Each sample was simultaneously detected using GAPDH protein as an internal reference. The protein profile was analyzed for grayscale values using analysis software ImageJ. The gray scale correction value of each sample was calculated by using the formula was used below: gray scale correction value = (target protein gray scale value/corresponding internal reference gray scale value) × 10^3Then, the calculated gray scale correction value was compared with a control gray scale correction value to calculate a degradation rate. Then, nonlinear curve fitting was performed on a logarithmic concentration-inhibition rate using Prism to obtain the DC50 and Dmax values of the compound.
Table 13 summarizes the evaluation of the reduction effects of protein degraders PRTB-01 to 16 on BRD protein expression levels. DC50 represents the concentration of the protein degrader when it induces 50% of the BRD protein to be degraded, with the level classified as A (DC50<1 µM), B (DC50 1 to 10 µM), or C (DC50>10 µM). Dmax represents the proportion of the maximum degree of […] protein degradation induced by the protein degrader to the total amount of BRD protein, with the level graded as A (Dmax>85%), B (Dmax85~50%), or C ([…]<50%) Table 13 Evaluation of protein degraders PRTB-01 to 16 in reducing BRD protein expression levels
Background: In western blotting, separated proteins are transferred to a membrane and probed.

SMILES strings stand for the structures. pIC50: −log10 of the molar value. “And” between values parts separate entries of the source, which are not always exact repeats. Equal values may be shown once. Where a name gives a salt, the structure may show the parent alone. Read-outs that look alike come from different tables or passages of the source.

`O=C1CCC(c2ccc(N3CCC[C@@H]3CO)nn2)C(=O)N1` (stereo partly drawn) [Compound 5, 3-(6-((R)-2-(hydroxymethyl)pyrrolidin-1-yl)pyridazin-3-yl)piperidine-2,6-dione]: at E3 ubiquitin ligase CRBN, the negative logarithm of the IC50 (pIC50) is 4.30. In turn, `O=C1CCC(c2ccc(N3CCC[C@H]3CO)nn2)C(=O)N1` (stereo partly drawn) [Compound 6, 3-(6-((S)-2-(hydroxymethyl)pyrrolidin-1-yl)pyridazin-3-yl)piperidine-2,6-dione] showed a negative-log IC50 (pIC50) on E3 ubiquitin ligase CRBN of 4.30.

On to `O=C1CCC(c2ccc(N3CCNCC3)nn2)C(=O)N1` (stereo not shown) [Compound 7, 3-(6-(piperazin-1-yl)pyridazin-3-yl)piperidine-2,6-dione hydrochloride salt], for which, at E3 ubiquitin ligase CRBN, the pIC50 was 4.30. In the case of `COc1ccc(C2CCC(=O)NC2=O)nn1` (stereo not shown) [Compound 8, 3-(6-methoxypyridazin-3-yl) piperidine-2,6-dione], the negative logarithm of the IC50 (pIC50) on E3 ubiquitin ligase CRBN was 4.30. `Cc1cc(N2CCNCC2)nnc1C1CCC(=O)NC1=O` (stereo not shown) [Compound 9, 3-(4-methyl-6-(piperazin-1-yl)pyridazin-3-yl)piperidine-2,6-dione hydrochloride salt] gave a pIC50 on E3 ubiquitin ligase CRBN of 4.30. On the same count and under the same terms, next, `O=C1CCC(c2nnc(N3CCNCC3)cc2F)C(=O)N1` (stereo not shown) [Compound 13, 3-(4-fluoro-6-(piperazin-1-yl)pyridazin-3-yl)piperidine-2,6-dione hydrochloride salt]: 4.30.

On E3 ubiquitin ligase CRBN, `N#Cc1cc(N2CCNCC2)nnc1C1CCC(=O)NC1=O` (stereo not shown) [Compound 14, 3-(2,6-dioxopiperidin-3-yl) -6-(piperazin-1-yl)pyridazine-4-carbonitrile hydrochloride salt] had a pIC50 of 4.30. At E3 ubiquitin ligase CRBN, `O=C1CCC(c2nnc(N3CCNCC3)cc2C(F)(F)F)C(=O)N1` (stereo not shown) [Compound 15, 3-(6-(piperazin-1-yl)-4-(trifluoromethyl)pyridazin-3-yl)piperidine-2,6-dione hydrochloride salt] gave a pIC50 of 4.30. For `COc1cc(N2CCNCC2)nnc1C1CCC(=O)NC1=O` (stereo not shown) [Compound 16, 3-(4-methoxy-6-(piperazin-1-yl)pyridazin-3-yl)piper idine-2,6-dione hydrochloride salt], the pIC50 on E3 ubiquitin ligase CRBN is 4.30. The same measure, in the same setting: under `Nc1cc(N2CCNCC2)nnc1C1CCC(=O)NC1=O` (stereo not shown) [Compound 17, 3-(4-amino-6-(piperazin-1-yl)pyridazin-3-yl)piperidine-2,6-dione hydrochloride salt] stands 4.30. Take `CN(C)Cc1cc(N2CCNCC2)nnc1C1CCC(=O)NC1=O` (stereo not shown) [Compound 18, 3-(4-((dimethylamino)methyl)-6-(piperazin-1-yl)pyridazin-3-yl)piperidine-2,6-dionebis hydrochloride salt]: the negative logarithm of the IC50 (pIC50) at E3 ubiquitin ligase CRBN (read-out: IC50) is < 4.30 and 4.00.

As to `Cc1sc2c(c1C)C(c1ccc(Cl)cc1)=N[C@@H](CC(=O)NCCCCNC(=O)COc1ccc(C3CCC(=O)NC3=O)nn1)c1nnc(C)n1-2` (stereo partly shown) [PRTB-01], on BRD protein, the DC50 lay within 1 to 10 µM and the Dmax was under 50%. At BRD protein, `Cc1sc2c(c1C)C(c1ccc(Cl)cc1)=N[C@@H](CC(=O)NCCCCCNC(=O)COc1ccc(C3CCC(=O)NC3=O)nn1)c1nnc(C)n1-2` (stereo partly shown) [PRTB-02] gave a DC50 of under 1 µM and a Dmax of over 85%. Take `Cc1sc2c(c1C)C(c1ccc(Cl)cc1)=N[C@@H](CC(=O)NCCCCCCNC(=O)COc1ccc(C3CCC(=O)NC3=O)nn1)c1nnc(C)n1-2` (stereo partly shown) [PRTB-03]: at BRD protein, the DC50 was in the range of 1 to 10 µM and the Dmax is under 50%. Regarding `Cc1sc2c(c1C)C(c1ccc(Cl)cc1)=N[C@@H](CC(=O)NCCCC(=O)N1CCN(c3ccc(C4CCC(=O)NC4=O)nn3)CC1)c1nnc(C)n1-2` (stereo partly shown) [PRTB-04], on BRD protein, the DC50 is 1 to 10 µM and the Dmax was under 50%. The matching figures for `Cc1sc2c(c1C)C(c1ccc(Cl)cc1)=N[C@@H](CC(=O)NCCCCC(=O)N1CCN(c3ccc(C4CCC(=O)NC4=O)nn3)CC1)c1nnc(C)n1-2` (stereo partly shown) [PRTB-05]: 1 to 10 µM and under 50%. `Cc1sc2c(c1C)C(c1ccc(Cl)cc1)=N[C@@H](CC(=O)NCCOCC(=O)N1CCN(c3ccc(C4CCC(=O)NC4=O)nn3)CC1)c1nnc(C)n1-2` (stereo partly shown) [PRTB-06]: at BRD protein, the DC50 fell in the range of 1 to 10 µM and the Dmax was 50 to 85%. At BRD protein, `Cc1sc2c(c1C)C(c1ccc(Cl)cc1)=N[C@@H](CC(=O)NCCCOCC(=O)N1CCN(c3ccc(C4CCC(=O)NC4=O)nn3)CC1)c1nnc(C)n1-2` (stereo partly shown) [PRTB-07] returned a DC50 of over 10 µM and a Dmax of under 50%.

For the molecule `Cc1sc2c(c1C)C(c1ccc(Cl)cc1)=N[C@@H](CC(=O)NCCOCC(=O)N1CCN(c3ccc(N4CCC(=O)NC4=O)nn3)CC1)c1nnc(C)n1-2` [PRTB-08], at BRD protein, the DC50 lay within 1 to 10 µM and the Dmax fell in the range of 50 to 85%.

On BRD protein, `Cc1cc(N2CCN(C(=O)COCCNC(=O)C[C@@H]3N=C(c4ccc(Cl)cc4)c4c(sc(C)c4C)-n4c(C)nnc43)CC2)nnc1C1CCC(=O)NC1=O` (stereo partly shown) [PRTB-09] gave a DC50 of 1 to 10 µM and a Dmax of 50 to 85%. Take `Cc1sc2c(c1C)C(c1ccc(Cl)cc1)=N[C@@H](CC(=O)NCCOCC(=O)N1CCN(c3nnc(C4CCC(=O)NC4=O)c4c3CCCC4)CC1)c1nnc(C)n1-2` (stereo partly shown) [PRTB-10]: at BRD protein, the DC50 was over 10 µM and the Dmax is under 50%. The matching figures for `Cc1sc2c(c1C)C(c1ccc(Cl)cc1)=N[C@@H](CC(=O)NCCOCC(=O)N1CCN(c3nnc(C4CCC(=O)NC4=O)c4ccccc34)CC1)c1nnc(C)n1-2` (stereo partly shown) [PRTB-11]: over 10 µM and under 50%. The matching figures for `Cc1sc2c(c1C)C(c1ccc(Cl)cc1)=N[C@@H](CC(=O)NCCCCCOC1CN(c3ccc(C4CCC(=O)NC4=O)nn3)C1)c1nnc(C)n1-2` (stereo partly shown) [PRTB-12]: under 1 µM and over 85%.

As for `Cc1sc2c(c1C)C(c1ccc(Cl)cc1)=N[C@@H](CC(=O)NCCCCCNC(=O)C#Cc1ccc(C3CCC(=O)NC3=O)nn1)c1nnc(C)n1-2` (stereo partly shown) [PRTB-13], on BRD protein, the DC50 was under 1 µM and the Dmax was over 85%. At BRD protein, `Cc1sc2c(c1C)C(c1ccc(Cl)cc1)=N[C@@H](CC(=O)NCCCn1ccc(C#Cc3ccc(C4CCC(=O)NC4=O)nn3)n1)c1nnc(C)n1-2` (stereo partly shown) [PRTB-14] displayed a DC50 of under 1 µM and a Dmax of 50 to 85%. Consider `Cc1sc2c(c1C)C(c1ccc(Cl)cc1)=N[C@@H](CC(=O)NCCCn1cc(C#Cc3ccc(C4CCC(=O)NC4=O)nn3)cn1)c1nnc(C)n1-2` (stereo partly shown) [PRTB-15], for which, at BRD protein, the DC50 was under 1 µM and the Dmax was over 85%. In the case of `COc1nnc(C2CCC(=O)NC2=O)cc1N1CCN(C(=O)COCCNC(=O)C[C@@H]2N=C(c3ccc(Cl)cc3)c3c(sc(C)c3C)-n3c(C)nnc32)CC1` (stereo partly shown) [PRTB-16], on BRD protein, the DC50 was over 10 µM and the Dmax is under 50%.
